Laboratory results from PubChem BioAssay (NCI).
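96-well plates; 48 h exposure; 5 concentrations. Endpoints by linear interpolation between flanking doses. Not reached: highest tested concentration assigned. TGI denotes the concentration required for complete inhibition of growth.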

What was measured:
Test in all cases: inhibition of tumour cell growth, NCI panel, 48 h
[1] = system: M19-MEL melanoma
[2] = system: HOP-18 NSCLC
[3] = system: HOP-62 NSCLC
[4] = system: XF 498 CNS
[5] = system: DMS 114 small cell lung
[6] = system: HT29 colon
[7] = system: NCI-H460 lung
[8] = system: UACC-62 melanoma
[9] = system: HL-60(TB) leukemia
[10] = system: MALME-3M melanoma
[11] = system: HCT-116 colon
[12] = system: SN12C renal
[13] = system: HOP-92 NSCLC
[14] = system: LXFL 529 NSCLC
[15] = system: NCI-H522 lung
[16] = system: SNB-78 CNS
[17] = system: KM12 colon
[18] = system: SK-MEL-5 melanoma
[19] = system: SF-539 CNS
[20] = system: MOLT-4 leukemia
[21] = system: COLO 205 colon
[22] = system: 786-0 renal
[23] = system: TK-10 renal
[24] = system: DLD-1 colon
[25] = system: SF-295 CNS
[26] = system: HCC-2998 colon
[27] = system: CCRF-CEM leukemia
[28] = system: RXF-631 renal
[29] = system: SR leukemia
[30] = system: SW-620 colon
[31] = system: OVCAR-8 ovarian
[32] = system: SNB-19 CNS
[33] = system: SK-MEL-28 melanoma
[34] = system: OVCAR-5 ovarian
[35] = system: IGROV1 ovarian
[36] = system: U251 CNS
[37] = system: A549 NSCLC
[38] = system: SF-268 CNS
[39] = system: OVCAR-4 ovarian
[40] = system: UACC-257 melanoma
[41] = system: RXF 393 renal
[42] = system: ACHN renal
[43] = system: CAKI-1 renal
[44] = system: M14 melanoma
[45] = system: NCI-H23 lung
[46] = system: UO-31 renal
[47] = system: OVCAR-3 ovarian
[48] = system: SNB-75 CNS
[49] = system: K-562 leukemia
[50] = system: LOX IMVI melanoma
[51] = system: HCT-15 colon
[52] = system: SK-MEL-2 melanoma
[53] = system: SK-OV-3 ovarian
[54] = system: NCI-H226 lung
[55] = system: A498 renal
[56] = system: RPMI-8226 leukemia
[57] = system: KM20L2 colon
[58] = system: EKVX NSCLC
[59] = system: DMS 273 small cell lung

Compound `CC(=O)c1c2c(cc3c1CC1(C3)Cc3cc4c(c(C(C)=O)c3C1)CCC4)CCC2` has a TGI [1] of over 100 µM, a TGI [2] of over 100 µM and a TGI [3] of over 100 µM. It also gave a TGI [4] of over 100 µM, a TGI [5] of over 100 µM and a TGI [6] of over 100 µM. It also gave a TGI [7] of over 100 µM, a TGI [8] of over 100 µM and a TGI [9] of over 100 µM. It also gave a TGI [10] of over 100 µM, a TGI [11] of over 100 µM and a TGI [12] of over 100 µM. For the same compound, the TGI [13] was over 100 µM, the TGI [14] was over 100 µM and the TGI [15] was over 100 µM. For the same compound, the TGI [16] was over 100 µM, the TGI [17] was over 100 µM and the TGI [18] was over 100 µM. The TGI [19] was over 100 µM, the TGI [20] was over 100 µM and the TGI [21] was over 100 µM. It also gave a TGI [22] of over 100 µM, a TGI [23] of over 100 µM and a TGI [24] of over 100 µM. For the same compound, the TGI [25] was over 100 µM, the TGI [26] was over 100 µM and the TGI [27] was over 100 µM. The TGI [28] was over 100 µM, the TGI [29] was over 100 µM and the TGI [30] was over 100 µM. It also gave a TGI [31] of over 100 µM, a TGI [32] of over 100 µM and a TGI [33] of over 100 µM. It also gave a TGI [34] of over 100 µM, a TGI [35] of over 100 µM and a TGI [36] of over 100 µM. The TGI [37] was over 100 µM, the TGI [38] was over 100 µM and the TGI [39] was over 100 µM. For the same compound, the TGI [40] was over 100 µM, the TGI [41] was over 100 µM and the TGI [42] was over 100 µM. It also gave a TGI [43] of over 100 µM, a TGI [44] of over 100 µM and a TGI [45] of over 100 µM. The TGI [46] was over 100 µM, the TGI [47] was over 100 µM and the TGI [48] was over 100 µM. For the same compound, the TGI [49] was over 100 µM and the TGI [50] was over 100 µM.
For `O=C(/C=C/c1ccccc1F)c1ccc(Cl)c(Cl)c1`, the TGI [1] was 58.1 µM, the TGI [2] was over 100 µM and the TGI [3] was over 100 µM. For the same compound, the TGI [51] was over 87 µM, the TGI [4] was 77 µM and the TGI [5] was 55.5 µM. It also gave a TGI [6] of over 75.2 µM, a TGI [7] of over 100 µM and a TGI [8] of over 100 µM. The TGI [9] was 51.4 µM, the TGI [10] was over 100 µM and the TGI [52] was over 100 µM. The TGI [53] was over 100 µM, the TGI [11] was 32.1 µM and the TGI [12] was 98.5 µM. It also gave a TGI [13] of over 100 µM, a TGI [14] of 35.6 µM and a TGI [15] of 61.2 µM. It also gave a TGI [16] of over 100 µM, a TGI [17] of 45 µM and a TGI [18] of over 84.1 µM. For the same compound, the TGI [19] was over 100 µM, the TGI [20] was 77 µM and the TGI [21] was over 100 µM. For the same compound, the TGI [22] was 31.4 µM, the TGI [23] was over 100 µM and the TGI [24] was over 62.9 µM. It also gave a TGI [25] of over 100 µM, a TGI [26] of over 71 µM and a TGI [27] of 67.8 µM. The TGI [28] was over 100 µM, the TGI [54] was over 100 µM and the TGI [55] was over 59.3 µM. It also gave a TGI [29] of over 100 µM, a TGI [30] of over 66.3 µM and a TGI [31] of over 100 µM. It also gave a TGI [32] of over 100 µM, a TGI [33] of over 100 µM and a TGI [34] of over 100 µM. It also gave a TGI [35] of over 72.6 µM, a TGI [37] of over 100 µM and a TGI [38] of over 100 µM. For the same compound, the TGI [39] was over 100 µM, the TGI [56] was over 75.6 µM and the TGI [40] was over 100 µM. The TGI [41] was 62.4 µM, the TGI [42] was over 100 µM and the TGI [57] was over 100 µM. It also gave a TGI [43] of over 80.2 µM, a TGI [44] of over 100 µM and a TGI [45] of 24 µM. It also gave a TGI [46] of over 100 µM, a TGI [58] of over 100 µM and a TGI [47] of over 71.6 µM. For the same compound, the TGI [59] was over 100 µM, the TGI [48] was 98.5 µM and the TGI [49] was 48.4 µM. The TGI [50] was 23.6 µM.
For `c1ccc2c3c([nH]c2c1)[C@H]1C2CCCCN2CN1CC3` (stereo not given in full), the TGI [1] was over 100 µM, the TGI [2] was over 100 µM and the TGI [3] was over 100 µM. It also gave a TGI [51] of over 100 µM, a TGI [4] of over 100 µM and a TGI [5] of over 100 µM. It also gave a TGI [6] of over 100 µM, a TGI [7] of over 100 µM and a TGI [8] of over 100 µM. For the same compound, the TGI [9] was over 100 µM, the TGI [10] was over 100 µM and the TGI [52] was over 100 µM. The TGI [53] was over 100 µM, the TGI [11] was over 100 µM and the TGI [12] was over 100 µM. The TGI [13] was over 100 µM, the TGI [14] was over 100 µM and the TGI [15] was over 100 µM. It also gave a TGI [16] of over 100 µM, a TGI [18] of over 100 µM and a TGI [19] of over 100 µM. The TGI [20] was over 100 µM, the TGI [21] was over 100 µM and the TGI [22] was over 100 µM. It also gave a TGI [23] of over 100 µM, a TGI [24] of over 100 µM and a TGI [25] of over 100 µM. For the same compound, the TGI [26] was over 100 µM, the TGI [27] was over 100 µM and the TGI [28] was over 100 µM. The TGI [55] was over 100 µM, the TGI [30] was over 100 µM and the TGI [31] was over 100 µM. For the same compound, the TGI [32] was over 100 µM, the TGI [33] was over 100 µM and the TGI [34] was over 100 µM. It also gave a TGI [35] of over 100 µM, a TGI [36] of over 100 µM and a TGI [37] of over 100 µM. For the same compound, the TGI [38] was over 100 µM, the TGI [39] was over 100 µM and the TGI [56] was over 100 µM. The TGI [40] was over 100 µM, the TGI [41] was over 100 µM and the TGI [42] was over 100 µM. For the same compound, the TGI [57] was over 100 µM, the TGI [43] was over 100 µM and the TGI [44] was over 100 µM. For the same compound, the TGI [45] was over 100 µM, the TGI [46] was over 100 µM and the TGI [58] was over 100 µM. For the same compound, the TGI [47] was over 100 µM, the TGI [59] was over 100 µM and the TGI [48] was over 100 µM. For the same compound, the TGI [49] was over 100 µM.
Work on `ClC/C=C/COC1CCCCO1` (stereo not given) yielded a TGI [1] of over 100 µM, a TGI [2] of over 100 µM and a TGI [3] of over 100 µM. The TGI [51] was over 100 µM, the TGI [4] was over 100 µM and the TGI [5] was over 100 µM. The TGI [6] was over 100 µM, the TGI [7] was over 100 µM and the TGI [8] was over 100 µM. It also gave a TGI [9] of 51.4 µM, a TGI [10] of over 100 µM and a TGI [52] of over 100 µM. The TGI [53] was over 100 µM, the TGI [11] was over 100 µM and the TGI [12] was over 100 µM. It also gave a TGI [13] of over 100 µM, a TGI [14] of over 100 µM and a TGI [15] of 8.85 µM. For the same compound, the TGI [16] was over 100 µM, the TGI [17] was over 100 µM and the TGI [18] was over 100 µM. For the same compound, the TGI [19] was over 100 µM, the TGI [20] was 97 µM and the TGI [21] was over 100 µM. It also gave a TGI [22] of over 100 µM, a TGI [23] of over 100 µM and a TGI [24] of over 100 µM. The TGI [25] was over 100 µM, the TGI [26] was over 100 µM and the TGI [27] was over 100 µM. For the same compound, the TGI [28] was over 100 µM, the TGI [54] was over 100 µM and the TGI [55] was over 100 µM. It also gave a TGI [29] of 54.2 µM, a TGI [30] of over 100 µM and a TGI [31] of over 100 µM. The TGI [32] was over 100 µM, the TGI [34] was over 100 µM and the TGI [35] was over 100 µM. For the same compound, the TGI [36] was over 100 µM, the TGI [37] was over 100 µM and the TGI [38] was over 100 µM. It also gave a TGI [39] of over 100 µM, a TGI [56] of over 100 µM and a TGI [40] of over 100 µM. For the same compound, the TGI [41] was over 100 µM, the TGI [42] was over 100 µM and the TGI [57] was over 100 µM. The TGI [43] was over 100 µM, the TGI [44] was over 100 µM and the TGI [45] was over 100 µM. The TGI [46] was over 100 µM, the TGI [58] was over 100 µM and the TGI [47] was over 100 µM. For the same compound, the TGI [59] was over 100 µM, the TGI [48] was over 100 µM and the TGI [49] was over 100 µM.
